From patent US10442763B2, “EBNA1 inhibitors and methods using same” (priority 2015, dated 2019)
pIC50: −log10 of the molar value.

Each compound was assayed against T1, His-EBNA1 (DNA binding domain of EBNA1, amino acids 459-607) (Epstein-Barr virus, UniProt P03211) (assay: Inhibition of 5'-biotin-oPL4624 binding to His-EBNA1 using Alpha Screen technology).
T1 construct: made in house; host or cells: E. coli
Procedure, shortened: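 AlphaScreen with 15 nM E. coli-expressed His-EBNA1 (aa 459-607), 0.2 nM biotinylated oPL4624 DNA and 5 μg/mL donor and acceptor beads in 25 mM Tris pH 7.2, 160 mM NaCl, 1 mM MgCl2; compound 3.2 nM–100 μM final. Read after 2 h at RT; inhibition normalised to no-EBNA1 wells, one-site dose-response fit.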

T1 sequence (P03211 459-607): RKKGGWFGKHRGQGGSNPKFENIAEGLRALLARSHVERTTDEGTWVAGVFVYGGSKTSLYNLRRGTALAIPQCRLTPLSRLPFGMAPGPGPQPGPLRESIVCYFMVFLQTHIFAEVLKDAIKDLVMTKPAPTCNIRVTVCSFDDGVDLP

Row | Structure (SMILES) | pIC50
1 | CS(=O)(=O)N1CCN(Cc2ccc(C#Cc3cccc(C(=O)O)c3-c3cnc4[nH]ccc4c3)cc2)CC1 [Entry 180] | 5.00 to 6.00
2 | O=C(O)c1cccc(C#Cc2ccc(CN3CCC(F)(F)CC3)cc2)c1-c1ccc2[nH]ccc2c1 [Entry 181] | 5.00 to 6.00
3 | CN1CCN(Cc2ccc(C#Cc3cccc(C(=O)O)c3-c3ccc4[nH]ccc4c3)cc2)CC1 [Entry 182] | 5.00 to 6.00
4 | CCS(=O)(=O)N1CCN(Cc2ccc(C#Cc3cccc(C(=O)O)c3-c3ccc4cc[nH]c4c3)cc2)CC1 [Entry 183] | 4.00 to 5.00
5 | O=C(O)c1cccc(C#Cc2ccc(OC3CCS(=O)(=O)CC3)cc2)c1-c1ccc2[nH]ccc2c1 [Entry 184] | 5.00 to 6.00
6 | O=C(O)c1cccc(C#Cc2ccc(OC3CCS(=O)(=O)CC3)cc2)c1-c1ccc2cn[nH]c2c1 [Entry 185] | 4.00 to 5.00
7 | O=C(O)c1cccc(C#Cc2ccc(COC3CCOCC3)cc2F)c1-c1ccc2cc[nH]c2c1 [Entry 186] | 5.00 to 6.00
8 | O=C(O)c1cccc(C#Cc2ccc(COC3CCS(=O)(=O)CC3)cc2F)c1-c1ccc2cc[nH]c2c1 [Entry 187] | 4.00 to 5.00
9 | CS(=O)(=O)N1CC2(CCN(Cc3ccc(C#Cc4cccc(C(=O)O)c4-c4ccc5cc[nH]c5c4)cc3)CC2)C1 [Entry 188] | 4.00 to 5.00
10 | CS(=O)(=O)N1CC2CN(Cc3ccc(C#Cc4cccc(C(=O)O)c4-c4ccc5cc[nH]c5c4)cc3)CC2C1 (centres unmarked) [Entry 189] | 4.00 to 5.00
11 | O=C(O)c1cccc(C#Cc2ccc(CN3CCN(S(=O)(=O)C4CC4)CC3)cc2)c1-c1ccc2cc[nH]c2c1 [Entry 190] | 4.00 to 5.00
12 | CC(C)S(=O)(=O)N1CCN(Cc2ccc(C#Cc3cccc(C(=O)O)c3-c3ccc4cc[nH]c4c3)cc2)CC1 [Entry 191] | 5.00 to 6.00
13 | CS(=O)(=O)N1CCC2(CC1)CN(Cc1ccc(C#Cc3cccc(C(=O)O)c3-c3ccc4cc[nH]c4c3)cc1)C2 [Entry 192] | 4.00 to 5.00
14 | O=C(O)c1cccc(C#Cc2ccc(OC3CCOCC3)cc2)c1-c1ccc2[nH]ccc2c1 [Entry 193] | 5.00 to 6.00
15 | CN(C)S(=O)(=O)NC(=O)c1cccc(C#Cc2ccc(COC3CCOCC3)cc2)c1-c1ccc2cc[nH]c2c1 [Entry 194] | 5.00 to 6.00
16 | CS(=O)(=O)NC(=O)c1cccc(C#Cc2ccc(COC3CCOCC3)cc2)c1-c1ccc2cc[nH]c2c1 [Entry 195] | 4.00 to 5.00
17 | C(#Cc1cccc(-c2nnn[nH]2)c1-c1ccc2cc[nH]c2c1)c1ccc(COC2CCOCC2)cc1 [Entry 196] | 5.00 to 6.00
18 | O=C(NCc1ccc(C#Cc2cccc(C(=O)O)c2-c2ccc3cc[nH]c3c2)cc1)c1ccccc1 [Entry 197] | 5.00 to 6.00
19 | O=C1CCC(C(=O)NCc2ccc(C#Cc3cccc(C(=O)O)c3-c3ccc4cc[nH]c4c3)cc2)CC1 [Entry 198] | > 6.00
20 | O=C1CCC(NC(=O)c2ccc(C#Cc3cccc(C(=O)O)c3-c3ccc4cc[nH]c4c3)cc2)CC1 [Entry 199] | > 6.00
21 | Nc1nc2c(s1)C[C@@H](NC(=O)c1ccc(C#Cc3cccc(C(=O)O)c3-c3ccc4cc[nH]c4c3)cc1)CC2 [Entry 200] | 5.00 to 6.00
22 | Nc1nc2c(s1)C[C@H](NC(=O)c1ccc(C#Cc3cccc(C(=O)O)c3-c3ccc4cc[nH]c4c3)cc1)CC2 [Entry 201] | 5.00 to 6.00
23 | CN1CCN(C(=O)c2ccc(C#Cc3cccc(C(=O)O)c3-c3ccc4cc[nH]c4c3)cc2)CC1 [Entry 202] | 4.00 to 5.00
24 | COC1CCN(C(=O)c2ccc(C#Cc3cccc(C(=O)O)c3-c3ccc4cc[nH]c4c3)cc2)CC1 [Entry 203] | 5.00 to 6.00
25 | CS(=O)(=O)N1CCN(Cc2ccc(C#Cc3cccc(C(=O)O)c3-c3ccc4cn[nH]c4c3)cc2)CC1 [Entry 204] | 4.00 to 5.00
26 | NS(=O)(=O)N1CCN(Cc2ccc(C#Cc3cccc(C(=O)O)c3-c3ccc4cc[nH]c4c3)cc2)CC1 [Entry 205] | 5.00 to 6.00
